This passage reports vessel count % control results from PubChem BioAssay AID732 (Emory University Molecular Libraries Screening Center, 2007).

Activity calls are given as the source filed them. No rule for the calls is given here.

The test system of this assay is in vivo angiogenesis, blood vessel count. As to the kind of experiment: angiogenesis inhibition in living animals, in vivo study, HTS (AID 732).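 Also: zebrafish embryos dosed at one day post fertilization; 0% = reference inhibitor and 100% = plate mean.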 The following applies: hits give low values;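 tested at 30 µM in the well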.

Consider `NC(=O)c1cc(N2CC2)c([N+](=O)[O-])cc1[N+](=O)[O-]`, for which the vessel count % control is 107% (inactive).
In the case of `Cc1ccc(S(=O)(=O)N[C@@H](CCCCN)C(=O)CCl)cc1`, the vessel count % control is 133% (inactive).
In the case of `CCCCCCCCCCCCCCCCCCNC(=O)OCC(COP(=O)([O-])OCC[n+]1ccsc1)OC` (configuration not stated), the vessel count % control was 92% (inactive).
Next, `CN1CCN(c2ccc3ccccc3n2)CC1`: 104% (inactive).
Next, `N=C1Sc2ccccc2C2=NCCCN12`: 104% (inactive); `C[C@]12CC[C@@H]3c4ccc(O)cc4CC[C@H]3[C@@H]1CC[C@@H]2O`: 104% (inactive).
Next, `O[Si](CCCN1CCCCC1)(c1ccc(F)cc1)C1CCCCC1` (configuration not stated): 107% (inactive).
As to `CC1Cc2cc3c(cc2C(c2ccc(N)cc2)=NN1)OCO3` (configuration not stated), the vessel count % control is 105% (inactive).
For the compound `CC(C)NNC(=O)c1ccncc1`, the vessel count % control is 118% (inactive).
Next, `S=C=Nc1cccc(C2(N3CCCCC3)CCCCC2)c1`: 91% (inactive); `CCCCc1oc2ccccc2c1C(=O)c1cc(I)c(OCCN(CC)CC)c(I)c1`: 120% (inactive).
Take `NCCc1ccc(O)c(O)c1`: the vessel count % control was 91.6% (inactive).
Take `C[N+](C)(C)CCO`: the vessel count % control is 96.9% (inactive).
Regarding `Cn1c(=O)c2c(nc(/C=C/c3cccc(Cl)c3)n2C)n(C)c1=O`, the vessel count % control was 72.9% (inactive).
Next, `NC(N)=NCCSSCCN=C(N)N`: 93.7% (inactive); `O=C(Nc1ccccc1)c1cc([N+](=O)[O-])ccc1Cl`: 90.3% (inactive).
With `CC(C)C1C2CCC(C2)C1N` (configuration not stated), the vessel count % control is 95.1% (inactive).
Next, `CCN(CC)CCNC(=O)c1ccc(N)cc1`: 139% (inactive).
As to `C=C(C)C1CC=C(C(=O)O)CC1` (configuration not stated), the vessel count % control was 109% (inactive).
Next, `CC(N)c1cccc(Cl)c1Cl` (configuration not stated): 89.7% (inactive); `CC(C)C[C@H](NC(=O)[C@@H](O)[C@H](N)Cc1ccccc1)C(=O)O`: 123% (inactive); `C[C@H]1CC2C3CCC4=CC(=O)C=C[C@]4(C)[C@@]3(Cl)[C@@H](O)C[C@]2(C)[C@@]1(O)C(=O)CO` (some centres not stated): 120% (inactive).
Next, `C[C@@H]1O[C@H](C[N+](C)(C)C)CS1`: 89.1% (inactive); `Cn1c(=O)c2c(ncn2C)n(C)c1=O`: 113% (inactive); `O=C(O)CC[N+](=O)[O-]`: 87.6% (inactive).
As for `CN(C(=O)Cc1ccc(Cl)c(Cl)c1)C(CN1CCCC1)c1cccc(OCC(=O)O)c1` (configuration not stated), the vessel count % control is 124% (inactive).
Next, `Cn1cc(C(=O)OCC2CCN(CCNS(C)(=O)=O)CC2)c2ccccc21`: 106% (inactive).
Next, `Nc1nc2ccc(Cl)cc2c2nc(-c3ccco3)nn12`: 95.7% (inactive).
With `CCCCC#Cc1nc(N)c2ncn([C@@H]3O[C@H](C(=O)NCC)[C@@H](O)[C@H]3O)c2n1`, the vessel count % control is 110% (inactive).
Next, `CO[C@@]1(NC(=O)CSCC#N)C(=O)N2C(C(=O)O)=C(CSc3nnnn3C)CS[C@@H]21`: 122% (inactive); `COc1ccc2c(c1)/C(=C/c1cnc[nH]1)C(=O)N2`: 73.2% (inactive).
Next, `CNCCC=C1c2ccccc2CCc2ccccc21`: 103% (inactive).
With `NC(Cn1oc(=O)[nH]c1=O)C(=O)O` (configuration not stated), the vessel count % control was 129% (inactive).
Next, `CC1=C(/C=C/C(C)=C/C=C/C(C)=C/C(=O)O)C(C)(C)CCC1`: 70% (inactive).
Next, `CCCCCCCCCC(=O)NC(CN1CCOCC1)[C@H](O)c1ccccc1` (some centres not stated): 74% (inactive).
As to `CCN(CC)C(=O)c1ccc(O)c(OC)c1`, the vessel count % control was 96.8% (inactive).
Next, `CC(N)=NCCC[C@H](N)C(=O)O`: 134% (inactive).
Regarding `CCCN1CCC[C@H](c2cccc(O)c2)C1`, the vessel count % control was 77.4% (inactive).
`O=C(C1CCCCC1)N1CC(=O)N2CCc3ccccc3C2C1` (configuration not stated): the vessel count % control is 101% (inactive).
Turning to `CC(C)NCC(O)COc1cccc2[nH]ccc12` (configuration not stated), the vessel count % control is 90.8% (inactive).
Next, `CCCOC(=O)c1c(-c2ccccc2)nc(CC)c(C(=O)SCC)c1CCC`: 98% (inactive); `Nc1nc(N)c2nc(CNc3ccc(C(=O)NC(CCC(=O)O)C(=O)O)cc3)cnc2n1` (configuration not stated): 99.6% (inactive).
Next, `CCCC[C@@]1(C2CCCC2)Cc2cc(OCC(=O)O)c(Cl)c(Cl)c2C1=O`: 121% (inactive).
Next, `O=c1[nH]cc(F)c(=O)[nH]1`: 111% (inactive); `NC(=O)C(=O)O`: 125% (inactive).
Turning to `CC(C)NC[C@@H](O)c1ccc(O)c(O)c1`, the vessel count % control was 108% (inactive).
Next, `c1ccc(CN2CCC3(CCCc4ccccc43)CC2)cc1`: 128% (inactive); `Cc1cc(C)c(NC(=O)C[C@H](CC(=O)O)c2cccc3ccccc23)c(C(=O)N2CCC3(CCCC3)CC2)c1`: 108% (inactive); `CCCCCCCCCCCCCCCC(=O)NCC(COP(=O)([O-])OCC[N+](C)(C)C)OCC` (configuration not stated): 115% (inactive).
Next, `O=C(O)C1=CC(=C(c2ccc(O)c(C(=O)O)c2)c2ccc(O)c(C(=O)O)c2)C=CC1=O`: 109% (inactive); `COc1ccccc1N1CCN(CCN(C(=O)C2CCCCC2)c2ccccn2)CC1`: 87.8% (inactive).
Next, `CC(C)(C)NCC(O)c1cc(O)cc(O)c1` (configuration not stated): 93.9% (inactive); `O=C(NCCNCC(O)COc1ccc(O)cc1)N1CCOCC1` (configuration not stated): 89.9% (inactive).
With `Clc1ccccc1C(c1ccccc1)(c1ccccc1)n1ccnc1`, the vessel count % control is 114% (inactive).
Next, `O=C1NC(=O)C(c2ccccc2[N+](=O)[O-])=C1Nc1ccc(O)c(Cl)c1`: 105% (inactive); `C[C@H]1c2cccc(O)c2C(O)=C2C(=O)[C@]3(O)C(O)=C(C(N)=O)C(=O)[C@@H](N(C)C)[C@@H]3[C@@H](O)[C@@H]21`: 91.8% (inactive); `C[C@@H](CN1CCC(Cc2ccccc2)CC1)[C@@H](O)c1ccc(O)cc1`: 112% (inactive).
Next, `C=CCN1CC[C@]23c4c5ccc(O)c4O[C@@H]2/C(=N/N=C2\CC[C@@]4(O)C6Cc7ccc(O)c8c7[C@@]4(CCN6CC=C)[C@@H]2O8)CC[C@@]3(O)C1C5`: 100% (inactive).
Next, `N[C@@H](Cc1c[nH]c2ccccc12)C(=O)O`: 88.5% (inactive).
For `Oc1ccc2c3c1O[C@H]1c4oc5ccccc5c4C[C@@]4(O)C(C2)N(CC2CC2)CCC314` (some centres not stated), the vessel count % control was 93.1% (inactive).
Next, `COc1cccc(OC)c1OCCNCC1COc2ccccc2O1` (configuration not stated): 90.6% (inactive).
Next, `CC(=O)N[C@@H](CS)C(=O)O`: 96.5% (inactive); `NC(N)=NC(=O)Cc1c(Cl)cccc1Cl`: 119% (inactive).
Next, `NC(=S)NCCCC(N)C(=O)O` (configuration not stated): 119% (inactive).
In the case of `COc1cc2nc(N3CCN(C(=O)C4COc5ccccc5O4)CC3)nc(N)c2cc1OC` (configuration not stated), the vessel count % control was 103% (inactive).
Next, `C[C@@]1(C2CCCC2)Cc2cc(OCC(=O)O)c(Cl)c(Cl)c2C1=O`: 75.4% (inactive).
`COC1(C2=NCCN2)COc2ccccc2O1` (configuration not stated): the vessel count % control was 121% (inactive).
Next, `N#C/C(=C\c1ccc(O)c(O)c1)C(=O)Nc1ccccc1`: 104% (inactive).
As to `C=CC1(C)CC(=O)C2(O)C(C)(O1)C(OC(C)=O)C(O)C1C(C)(C)CCC(O)C12C` (configuration not stated), the vessel count % control is 97% (inactive).
Take `CN(C)CC/C=C1\c2ccccc2COc2ccccc21`: the vessel count % control is 97.3% (inactive).
Next, `CCCCCCCCCCCCCCCC(=O)OC(CC(=O)O)C[N+](C)(C)C` (configuration not stated): 92% (inactive); `NS(=O)(=O)c1cccc2c1c([N+](=O)[O-])cc1nc(O)c(O)nc12`: 111% (inactive); `Cc1cccc(/C=C/c2ccccc2)n1`: 74.2% (inactive).
Next, `NC(=O)CNCCC(c1ccccc1)c1ccccc1`: 119% (inactive).
Next, `Cc1ccc(Cl)c(Nc2ccccc2C(=O)O)c1Cl`: 90.3% (inactive); `Cc1cnc(C(=O)NCCc2ccc(S(=O)(=O)NC(=O)NC3CCCCC3)cc2)cn1`: 106% (inactive); `C/C(O)=C(\C#N)C(=O)Nc1cc(Br)ccc1Br`: 139% (inactive).
For `N#C/C(=C\c1c[nH]c2ccccc12)C(=O)c1ccc(O)c(O)c1`, the vessel count % control was 102% (inactive).
Next, `Nc1nnc(-c2cccc(Cl)c2Cl)c(N)n1`: 62.2% (inactive).
Next, `Cc1ccc(/C(=C\CN2CCCC2)c2ccccn2)cc1`: 80% (inactive); `Ic1ccc(N2CCN(Cc3c[nH]c4ncccc34)CC2)cc1`: 99.4% (inactive).
Next, `CC(C)(C)c1cc(/C=C(\C#N)C(N)=S)cc(C(C)(C)C)c1O`: 0% (inactive); `CC12CC3CC(C)(C1)CC(N)(C3)C2`: 128% (inactive).
As for `O=C1C(c2c(O)[nH]c3c(Cl)ccc(Cl)c23)=Nc2ccc(Br)cc21`, the vessel count % control was 121% (inactive).
Next, `O=c1oc(Cl)c(Cl)c2ccccc12`: 104% (inactive); `Cc1ccc([N+](=O)[O-])cc1S(=O)(=O)N(C)C`: 108% (inactive); `COc1ccc(CN(CCN(C)C)c2ccccn2)cc1`: 106% (inactive).
